Reference: patent US20110053770A1, “SUBSTITUTED AMINOTHIAZOLES AND THEIR USE AS FUNGICIDES” (BAYER CROPSCIENCE AG, priority 2009, published 2011)
Marks after values point to notes of the source that are not given here.

Experiment: logP by HPLC on reversed-phase columns (C 18), EEC directive 79/831 Annex V.A8
Type: physicochemical
Conditions: for log P (**) / log P (***): LC-MS; for log P (**) / log P (*): acidic range; for log P (**): pH 2.7, 0.1% aqueous formic acid and acetonitrile; for log P (***): neutral range, pH 7.8, 0.001 molar aqueous ammonium bicarbonate and acetonitrile; for log P (*): pH 2.3, 0.1% aqueous phosphoric acid and acetonitrile
Procedure: Calibration was carried out using unbranched alkan-2-ones (having from 3 to 16 carbon atoms) with known logP values (the logP values were determined by the retention times using linear interpolation between two successive alkanones).

Structure (SMILES) | log P (**) | log P (***) | log P (*)
CC(C)(C)c1cc(Oc2ccccc2-c2csc(N=C3CCCCN3)n2)ccc1Cl [compound 12, 4-[2-(3-tert-butyl-4-chlorophenoxy)phenyl]-N-[(2E/Z)-piperidin-2-ylidene]-1,3-thiazole-2-amine] | 2.92 | 5.96 | 2.92
CC(=O)N1CCCCC1=Nc1nc(-c2ccccc2Oc2ccccc2)cs1 [compound 17, 1-[(2E/Z)-2-{[4-(2-phenoxyphenyl)-1,3-thiazol-2-yl]imino}piperidin-1-yl]ethanone] | 4.41 | 4.39 | 4.41
c1ccc(Oc2ccccc2-c2csc(N=C3CCCN3)n2)cc1 [compound 98, 4-(2-phenoxyphenyl)-N-[(2E/Z)-pyrrolidin-2-ylidene]-1,3-thiazole-2-amine] | 2.05 | 3.54 | 1.92
Cc1sc(N=C2CCCCN2)nc1-c1cccc(F)c1F [compound 44, 4-(2,3-difluorophenyl)-5-methyl-N-[(2E/Z)-piperidin-2-ylidene]-1,3-thiazole-2-amine] | 1.7 | 3.2 | 1.7
Clc1ccc(Cc2ccccc2-c2csc(N=C3CCCCN3)n2)cc1 [compound 93, 4-[2-(4-chlorobenzyl)-phenyl]-N-[(2E/Z)-piperidin-2-ylidene]-1,3-thiazole-2-amine] | 2.17 | 4.7 | –
Clc1ncccc1-c1csc(N=C2CCCCN2)n1 [compound 53, 4-(2-chloropyridin-3-yl)-N-[(2E/Z)-piperidin-2-ylidene]-1,3-thiazole-2-amine] | – | – | 0.71*
CC(=O)N1CCCCC1=Nc1nc(-c2cccc(C(F)(F)F)c2F)cs1 [compound 38, 1-[(2E/Z)-2-({4-[2-fluoro-3-(trifluoromethyl)phenyl]-1,3-thiazol-2-yl}imino)piperidin-1-yl]ethanone] | 4.25 | 4.23 | 4.25
FC(F)(F)c1cccc(-c2csc(N=C3CCCCN3)n2)c1 [compound 105, N-[(2E/Z)-piperidin-2-ylidene]-4-[3-(trifluoromethyl)phenyl]-1,3-thiazole-2-amine] | 1.75** | – | –

Now from value to molecule:

log P (**) | log P (***) | log P (*) | Structure (SMILES)
– | 4.38 | 2.06 | Brc1ccccc1Oc1ccccc1-c1csc(N=C2CCCCN2)n1 [compound 86, 4-[2-(2-bromophenoxy)phenyl]-N-[(2E/Z)-piperidin-2-ylidene]-1,3-thiazole-2-amine]
– | 3.95 | 2.12 | Fc1ccc(Oc2ccc(-c3csc(N=C4CCCCN4)n3)cc2)c(F)c1 [compound 9, 4-[4-(2,4-difluorophenoxy)phenyl]-N-[(2E/Z)-piperidin-2-ylidene]-1,3-thiazole-2-amine]
– | 3.98 | 1.94 | Fc1ccc(F)c(Oc2ccccc2-c2csc(N=C3CCCCN3)n2)c1 [compound 80, 4-[2-(2,5-difluorophenoxy)phenyl]-N-[(2E/Z)-piperidin-2-ylidene]-1,3-thiazole-2-amine]
2.52 | 2.48 | – | Cc1ccc(Oc2ccccc2-c2csc(N=C3CCCN3)n2)c(C)c1 [compound 95, 4-[2-(2,4-dimethylphenoxy)phenyl]-N-[(2E/Z)-pyrrolidin-2-ylidene]-1,3-thiazole-2-amine]
2.42 | 4.84 | 2.42 | Clc1ccc(Oc2ccccc2-c2csc(N=C3CCCCN3)n2)c(Cl)c1 [compound 11, 4-[2-(2,4-dichlorophenoxy)phenyl]N-[(2E/Z)-piperidin-2-ylidene]-1,3-thiazole-2-amine]
